The text below walks through data of patent US11412733B2, “Method for enhancing plant disease controlling effects of isofetamid and method for controlling plant diseases” (ISHIHARA SANGYO KAISHA, LTD., priority 2016, dated 2022).

Holding throughout (format): in vivo
The subject of experiment [1] is Sphaerotheca fulidinea. The experiment in a line: Test Example 1: penetration effect against cucumber powdery mildew. Conditions: isofetamid 400 ppm + product 0.05 wt %, leaf adaxial surface, 1,000 L/ha, abaxial inoculation after 4 days, No addition = without component (b). Here is the method:
Cucumber (cultivar: Sagamihanjiro Fushinari) was cultivated in a polyethylene pot having a diameter of 7.5 cm, and when the cucumber reached 1.5-leaf stage, an isofetamid 400 ppm solution prepared by adding an aqueous solution (0.05 wt %) of each of products containing the component (b) as identified in Tables 1-1 to 1-6 to isofetamid, was applied to the leaf adaxial surface by means of a spray gun in an amount of 1,000 L/ha (20 ml/0.2 m^2). After the chemical solution dried, the cucumber was cultivated in a greenhouse for 4 days, the leaf abaxial surface was sprayed and inoculated with a suspension of conidia of Sphaerotheca fulidinea, and the cucumber was cultivated in a room at 22° C. under illumination for 7 to 8 days. The lesion area ratio on the abaxial surface of the first leaf was examined, and the control value was calculated based on the following formula. In Tables, “no addition” means the above treatment without adding the component (b) (the same applies hereinafter). Control value=(1−a/b)×100
(§1) a: lesion area ratio in treated plot, b: lesion area ratio in non-treated plot

Experiment [2] relates to Corynesbora cassiicora. The experiment in a line: Test Example 2: penetration effect against cucumber leaf spot. To be noted: isofetamid 400 ppm + product 0.05 wt %, leaf adaxial surface, 1,000 L/ha; abaxial inoculation after 4 days; examined 7 days after inoculation.
Source text: Cucumber (cultivar: Natsusuzumi) was cultivated in a polyethylene pot having a diameter of 7.5 cm, and when the cucumber reached 1.5-leaf stage, an isofetamid 400 ppm solution prepared by adding an aqueous solution (0.05 wt %) of each of products containing the component (b) as identified in Table 2 to isofetamid, was applied to the leaf adaxial surface by means of a spray gun in an amount corresponding to 1,000 L/ha. The cucumber was cultivated in a greenhouse for 4 days, and the leaf abaxial surface was sprayed and inoculated with a suspension of conidia of Corynesbora cassiicora, and the cucumber was kept under humidified chamber conditions at 23° C. for 24 hours. Thereafter, the cucumber was kept in a thermostatic chamber at 20° C., and 7 days after the inoculation, the lesion area ratio on the first leaf was examined, and the control value was calculated based on the following formula. Control value=(1−a/b)×100
In experiment [3] the test system is Corynesbora cassiicora. The experiment in a line: Test Example 3: curative effect against cucumber leaf spot. Conditions: inoculated 24 hours before treatment; isofetamid 400 ppm + product 0.05 wt %, 1,000 L/ha; examined 7 days after inoculation. From the text:
Cucumber (cultivar: […] The leaf was air-dried, and an isofetamid 400 ppm solution prepared by adding an aqueous solution (0.05 wt %) of each of products containing the component (b) as identified in Table 3 to isofetamid, was applied by means of a spray gun in an amount corresponding to 1,000 L/ha. […] a: lesion area ratio in treated plot, b: lesion area ratio in non-treated plot

The test system of experiment [4] is Sphaerotheca fulidinea. The experiment in a line: Test Example 4: rainfastness against cucumber powdery mildew. Conditions: isofetamid 200 ppm + product 0.05 wt %, 1,000 L/ha; after 2 days rainfall 40 mm per hour for one hour, then adaxial inoculation. Here is the method: Cucumber (cultivar: […] After the chemical solution dried, the cucumber was cultivated in a greenhouse for 2 days, and rainfall treatment (rainfall intensity: 40 mm per hour) was carried out by means of an artificial rainfall apparatus for one hour, and after drying, the leaf adaxial surface was sprayed and inoculated with a suspension of conidia of Sphaerotheca fulidinea, and the cucumber was cultivated in a room at 20° C. under illumination for 7 days. The lesion area ratio on the adaxial surface of the first leaf was examined, and the control value was calculated based on the following formula. […] a: lesion area ratio in treated plot, b: lesion area ratio in non-treated plot

Experiment [5] relates to Corynespora cassiicora. The experiment in a line: Test Example 5: penetration effect against cucumber leaf spot with different surfactant concentrations. Conditions: isofetamid 200 ppm without component (b); abaxial inoculation after 3 days. Here is the method:
Cucumber (cultivar: […] The cucumber was cultivated in a greenhouse for 3 days, and the leaf abaxial side was sprayed and inoculated with a suspension of conidia of Corynespora cassiicora, and the cucumber was kept under humidified chamber conditions at 23° C. for 24 hours. […] a: lesion area ratio in treated plot, b: lesion area ratio in non-treated plot

Experiment [6] has as its system Sphaerotheca fulidinea. The experiment in a line: Test Example 6: penetration effect against cucumber powdery mildew. To be noted: isofetamid 400 ppm + product 0.025 wt %, leaf adaxial surface, 1,000 L/ha; abaxial inoculation after 4 days.
Source text: Cucumber (cultivar: Sagamihanjiro Fushinari) was cultivated in a polyethylene pot having a diameter of 7.5 cm, and when the cucumber reached 1.5-leaf stage, an isofetamid 400 ppm solution prepared by adding an aqueous solution (0.025 wt %) of each of products containing the component (b) as identified in Table 6 to isofetamid was applied to the leaf adaxial surface by means of a spray gun in an amount corresponding to 1,000 L/ha. The cucumber was cultivated in a greenhouse for 4 days, and then the leaf abaxial side was sprayed and inoculated with a suspension of conidia of Sphaerotheca fulidinea, and the cucumber was cultivated in a room at 22° C. under illumination for 7 days. The lesion area ratio on the abaxial side of the first leaf was examined, and the control value was calculated based on the following formula. Control value=(1−a/b)×100
as §1

Experiment [7] concerns Corynespora cassiicora. The experiment in a line: Test Example 7: residual effect against cucumber leaf spot. To be noted: isofetamid 200 ppm + product 0.05 wt %, four-leaf stage, 1,000 L/ha; inoculation after 7 days. The protocol:
Cucumber (cultivar: […] After the chemical solution dried, the cucumber was cultivated in a greenhouse for 7 days, and the cucumber was sprayed and inoculated with a suspension of conidia of Corynespora cassiicora, and kept under humidified chamber conditions at 23° C. for 24 hours. Thereafter, the cucumber was cultivated in a room at 20° C. under illumination for 7 days. The lesion area ratio on the first leaf was examined, and the control value was calculated based on the following formula. The obtained results are shown in Table 7. […] a: lesion area ratio in treated plot, b: lesion area ratio in non-treated plot

Regarding `Cc1cc(OC(C)C)ccc1C(=O)C(C)(C)NC(=O)c1sccc1C` [No addition, isofetamid], the Control value in the experiment on Sphaerotheca fulidinea [1] (Table 1-1) is recorded as 0; with Sphaerotheca fulidinea [1] (Table 1-2) it was 6; in the experiment on Sphaerotheca fulidinea [1] (Table 1-3), 4; in the experiment with Sphaerotheca fulidinea [1] (Table 1-4), 11; with Sphaerotheca fulidinea [1] (Table 1-5), 14; in the experiment on Sphaerotheca fulidinea [1] (Table 1-6), 68. The Control value with Corynesbora cassiicora [2] was 68; in the experiment on Corynesbora cassiicora [3], 0; in the experiment with Sphaerotheca fulidinea [4] it was 62; in the experiment with Corynespora cassiicora [5], 66.7; with Sphaerotheca fulidinea [6], 54.6; in the experiment with Corynespora cassiicora [7] it was 80.
